Measured values: patent US8865894B2, “Oxazolidin-2-one compounds and uses thereof” (Novartis AG, priority 2012, dated 2014)

Molecular target: T1, human PI3Kδ (Homo sapiens, UniProt O00329)
T1 construct: made in house
T1 sequence (O00329 2-1044 limits assumed): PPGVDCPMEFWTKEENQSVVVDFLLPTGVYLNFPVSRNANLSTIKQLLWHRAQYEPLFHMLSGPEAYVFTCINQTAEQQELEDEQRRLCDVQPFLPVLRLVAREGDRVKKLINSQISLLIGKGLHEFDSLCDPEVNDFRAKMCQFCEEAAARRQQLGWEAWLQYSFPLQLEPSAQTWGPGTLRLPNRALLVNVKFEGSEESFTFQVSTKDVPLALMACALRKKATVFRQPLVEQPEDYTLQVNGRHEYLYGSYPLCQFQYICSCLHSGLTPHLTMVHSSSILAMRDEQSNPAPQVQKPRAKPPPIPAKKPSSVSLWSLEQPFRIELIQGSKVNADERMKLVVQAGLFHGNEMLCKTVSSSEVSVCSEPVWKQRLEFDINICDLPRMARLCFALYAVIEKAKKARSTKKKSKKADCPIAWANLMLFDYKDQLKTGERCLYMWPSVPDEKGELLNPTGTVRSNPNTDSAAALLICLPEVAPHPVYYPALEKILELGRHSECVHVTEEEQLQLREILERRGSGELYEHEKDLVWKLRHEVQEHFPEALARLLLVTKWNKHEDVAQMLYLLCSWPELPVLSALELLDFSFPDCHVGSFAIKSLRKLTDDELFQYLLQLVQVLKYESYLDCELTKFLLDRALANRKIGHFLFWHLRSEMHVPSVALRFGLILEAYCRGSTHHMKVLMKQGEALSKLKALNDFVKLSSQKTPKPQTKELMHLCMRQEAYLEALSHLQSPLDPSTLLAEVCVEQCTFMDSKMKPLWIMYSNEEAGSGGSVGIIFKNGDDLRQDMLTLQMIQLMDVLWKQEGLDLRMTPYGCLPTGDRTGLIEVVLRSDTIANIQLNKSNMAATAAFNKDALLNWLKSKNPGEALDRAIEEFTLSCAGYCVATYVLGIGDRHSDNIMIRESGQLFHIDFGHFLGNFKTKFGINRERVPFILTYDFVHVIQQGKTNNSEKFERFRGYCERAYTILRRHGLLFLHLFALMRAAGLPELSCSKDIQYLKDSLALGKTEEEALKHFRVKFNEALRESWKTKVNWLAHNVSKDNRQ
Test: Biochemical PI3Kdelta (TR-FRET Adapta Universal Kinase Assay)
Conditions: mean of n measurements, read-out: PIK3d/ IC50
Procedure: Test compounds were dissolved in DMSO (10 mM) and transferred into 1.4 mL flat bottom or V-shaped Matrix tubes carrying a unique 2D matrix chip by individual Novartis compound hubs. The numbers of these chips were distinctively linked to Novartis Pharma Numbers. The stock solutions were stored at −20° C. if not used immediately. For the test procedure the vials were defrosted and identified by a scanner whereby a working sheet was generated that guided the subsequent working steps.
Compounds were either manually diluted in DMSO for individual experiments (96 wells enabling 10 cpds at 8 (single points) concentrations) as described in or prepared as described below if tested for profiling in 384-wells. This format enabled the assay of maximally 40 individual test compounds at 8 concentrations (single points) including 4 reference compounds. The dilution protocol included the production of “pre-dilution plates”, “master plates” and “assay plates”.
96 polypropylene well plates were used as pre-dilution plates. A total of 4 pre-dilution plates were prepared including 10 test compounds each on the plate positions A1-A10, one standard compound at A11 and one DMSO control at A12. Programs have been written to run these pipetting steps on the HamiltonSTAR robots.
Identical “assay plates” were then prepared by pipetting 50 nL each of compound dilutions of the “master plates” into 384-well “assay plates”. The compounds were mixed with 4.5 μL of assays components plus 4.5 μL enzyme corresponding to a 1:181 dilution enabling the final concentration of 10, 3.0, 1.0, 0.3, 0.1, 0.03, 0.01 and 0.003 μM, respectively. The preparation of the “master plates” was handled by the Matrix PlateMate Plus robot and replication of “assay plates” by the HummingBird robot.
Catalytically active human PI3Kα, PI3Kβ, PI3Kδ, and mTOR were cloned, expressed and purified as described (Maira S M, Stauffer F, Brueggen J, Furet P, Schnell C, Fritsch C, Brachmann S, Chène P, de Pover A, Schoemaker K, Fabbro D, Gabriel D, Simonen M, Murphy L, Finan P, Sellers W, García-Echeverría C (2008), Mol Cancer Ther. 7:1851-63 and Maira S M, Pecchi S, Brueggen J, Huh K, Schnell C, Fritsch C, Nagel T, Wiesmann M, Brachmann S, Dorsch M, Chène P, Schoemaker K, De Pover A, Menezes D, Fabbro D, Sellers W, García-Echeverría C, Voliva C F (2011), Mol. Cancer Ther. accepted).
The TR-FRET Adapta™ Universal Kinase Assay Kit was purchased from Invitrogen Corporation (Carlsbad/CA, USA) (Cat. No. PV5099). The kit contains the following reagents: Adapta Eu-anti-ADP Antibody (Europium labeled anti-ADP antibody in HEPES buffered saline, Cat. No. PV5097), Alexa Fluor® 647-labeled ADP tracer (Alexa Fluor® 647-labeled ADP tracer in HEPES buffered saline, Cat. No. PV5098), proprietary TR-FRET dilution buffer pH 7.5 (Cat. No. PV3574).
PIK3CD substrate Phosphatidylinositol was obtained from Invitrogen (vesicules consisting of 2 mM PI in 50 mM HEPES pH7.5; Cat. No. PV5371). PIK3CG substrate Phosphatidylinositol-4,5-bisphosphate (PIP(4,5)2 was obtained from Invitrogen (PIP2:PS large unilamellar vesicules consisting of 1 mM PIP2: 19 mM PS in 50 mM HEPES pH7.5, 3 mM MgCl2, 1 mM EGTA; Cat. No. PV5100).
Time-Resolved Fluorescence Resonance Energy Transfer (TR-FRET) is a technology based on energy transfer between two adjacent dyes, from an excited electron in one dye (the donor) to an electron of an adjacent dye (the acceptor) through resonance, then released as a photon. This energy transfer is detected by an increase in the fluorescence emission of the acceptor, and a decrease in the fluorescence emission of the donor. TR-FRET assays for protein kinases use a long-lifetime lanthanide Terbium or Europium chelates as the donor species which overcome interference from compound autofluorescence or light scatter from precipitated compounds, by introducing a delay after excitation by a flashlamp excitation source. Results are often expressed as a ratio of the intensities of the acceptor and donor fluorophores.

| Compound | IC50 [nM] |
| --- | --- |
| Nc1ncc(-c2cc(N3C(=O)O[C@H]4COC[C@H]43)nc(N3CCOCC3)n2)c(C(F)(F)F)n1 [Example 21, (3aR,6aR)-3-(2′-amino-2-morpholino-4′-(trifluoromethyl)-[4,5′-bipyrimidin]-6-yl)-tetrahydrofuro[3,4-d]oxazol-2(3H)-one] | 17 |
| C[C@H]1[C@@H](CO)OC(=O)N1c1cc(-c2cnc(N)nc2C(F)(F)F)nc(N2CCOCC2)n1 [Example 19, (4S,5S)-3-(2′-Amino-2-morpholin-4-yl-4′-trifluoromethyl-[4,5′]bipyrimidinyl-6-yl)-5-hydroxymethyl-4-methyl-oxazolidin-2-one] | 9 |
| C[C@H]1OC(=O)N(c2cc(-c3cnc(N)nc3C(F)(F)F)nc(N3CCOC[C@@H]3C)n2)[C@H]1CO [Example 10, (4S,5R)-3-[2′-Amino-2-((S)-3-methyl-morpholin-4-yl)-4′-trifluoromethyl-[4,5′]bipyrimidinyl-6-yl]-4-hydroxymethyl-5-methyl-oxazolidin-2-one] | 12 |
| Nc1ncc(-c2cc(N3CCOC3=O)nc(N3CCOCC3)n2)c(C(F)(F)F)n1 [Example 11, 3-(2′-Amino-2-morpholin-4-yl-4′-trifluoromethyl-[4,5′]bipyrimidinyl-6-yl)-oxazolidin-2-one, reference compound] | 29 |
| Nc1ncc(-c2cc(N3C(=O)OC4C(O)CCC43)nc(N3CCOCC3)n2)c(C(F)(F)F)n1 (single isomer, unassigned) [Example 22B] | 5 |
| C[C@H]1C(CC(C)(C)O)OC(=O)N1c1cc(-c2cnc(N)nc2C(F)(F)F)nc(N2CCOCC2)n1 (mixture of isomers) [Example 26, (4S,5R)- and (4S,5S)-3-(2′-amino-2-morpholino-4′-(trifluoromethyl)-[4,5′-bipyrimidin]-6-yl)-5-(2-hydroxy-2-methylpropyl)-4-methyloxazolidin-2-one] | 12 |
| C[C@@H](O)C[C@H]1OC(=O)N(c2cc(-c3cnc(N)nc3C(F)(F)F)nc(N3CCOCC3)n2)[C@H]1C (single isomer, unassigned) [Example 24] | 9 |
